Source: ChEMBL document CHEMBL3808348, “Rational Design, Synthesis, and Biological Evaluation of 7-Azaindole Derivatives as Potent Focused Multi-Targeted Kinase Inhibitors” (J Med Chem, 2016)

How the values were obtained:
HT-29 = test: Antiproliferative activity against human HT-29 cells after 72 hrs by MTT assay; assay type: functional, cell-based; conditions: HT-29, 72 h
HUVEC = test: Antiangiogenic activity in HUVEC after 72 hrs by MTT assay; assay type: functional, cell-based; conditions: Homo sapiens
[1] = Antiangiogenic activity in HRMEC after 72 hrs by MTT assay; assay type: functional, Homo sapiens
[2] = Antiproliferative activity against human Caki2 cells after 72 hrs by MTT assay; assay type: functional, cell-based; conditions: CAKI-2, 72 h
[3] = Antiproliferative activity against human BxPC3 cells after 72 hrs by MTT assay; assay type: functional, cell-based; conditions: BXPC-3, 72 h
MDA-MB-231 = test: Antiproliferative activity against human MDA-MB-231 cells after 72 hrs by MTT assay; assay type: functional, cell-based; conditions: MDA-MB-231, 72 h
HepG2 = test: Antiproliferative activity against human HepG2 cells after 72 hrs by MTT assay; assay type: functional, cell-based; conditions: HepG2, 72 h
A549 = test: Antiproliferative activity against human A549 cells after 72 hrs by MTT assay; assay type: functional, cell-based; conditions: A549, 72 h
NCI-H1975 = test: Antiproliferative activity against human NCI-H1975 cells harboring EGFR L858R/T790M double mutant after 72 hrs by MTT assay; assay type: functional, cell-based; conditions: NCI-H1975, 72 h
[4] = biological target: Epidermal growth factor receptor (Homo sapiens, UniProt P00533); test: Inhibition of GST-tagged human recombinant EGFR (668 to1210 residues) expressed in baculovirus using Fluorescein-Poly GT as substrate at 100 nM
Epidermal growth factor receptor, sequence (P00533 whole entry, the tested form may be a part): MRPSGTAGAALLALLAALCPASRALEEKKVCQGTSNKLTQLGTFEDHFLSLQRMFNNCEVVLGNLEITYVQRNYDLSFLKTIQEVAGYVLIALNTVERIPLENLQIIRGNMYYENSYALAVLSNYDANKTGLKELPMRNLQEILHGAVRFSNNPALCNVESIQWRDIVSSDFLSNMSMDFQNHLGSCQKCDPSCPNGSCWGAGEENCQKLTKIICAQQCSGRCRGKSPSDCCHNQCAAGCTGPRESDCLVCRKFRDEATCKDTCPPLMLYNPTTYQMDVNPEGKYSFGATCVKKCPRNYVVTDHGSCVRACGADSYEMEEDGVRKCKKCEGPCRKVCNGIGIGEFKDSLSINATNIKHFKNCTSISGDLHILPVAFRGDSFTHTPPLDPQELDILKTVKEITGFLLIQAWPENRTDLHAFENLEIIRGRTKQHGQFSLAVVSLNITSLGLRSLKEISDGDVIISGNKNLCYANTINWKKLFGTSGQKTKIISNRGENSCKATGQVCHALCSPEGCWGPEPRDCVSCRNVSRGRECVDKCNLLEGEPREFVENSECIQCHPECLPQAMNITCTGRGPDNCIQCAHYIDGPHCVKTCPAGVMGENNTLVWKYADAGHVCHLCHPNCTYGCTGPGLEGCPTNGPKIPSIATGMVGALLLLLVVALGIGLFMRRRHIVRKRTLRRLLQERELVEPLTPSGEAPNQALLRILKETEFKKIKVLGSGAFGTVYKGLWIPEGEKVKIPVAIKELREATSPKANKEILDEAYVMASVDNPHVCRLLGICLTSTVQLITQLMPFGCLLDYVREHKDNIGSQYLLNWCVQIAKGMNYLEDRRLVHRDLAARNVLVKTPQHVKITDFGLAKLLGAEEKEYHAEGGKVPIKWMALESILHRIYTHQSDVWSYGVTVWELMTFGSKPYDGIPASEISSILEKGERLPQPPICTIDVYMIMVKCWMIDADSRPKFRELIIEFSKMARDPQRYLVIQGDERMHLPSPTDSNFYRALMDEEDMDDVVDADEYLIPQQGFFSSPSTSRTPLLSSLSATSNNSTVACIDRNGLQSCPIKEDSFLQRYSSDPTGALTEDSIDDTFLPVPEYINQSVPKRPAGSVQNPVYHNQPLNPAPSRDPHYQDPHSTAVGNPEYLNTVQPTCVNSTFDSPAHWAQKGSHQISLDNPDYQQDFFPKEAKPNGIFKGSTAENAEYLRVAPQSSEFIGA

[5] = biological target: Fibroblast growth factor receptor 2 (Homo sapiens) (UniProt P21802); test: Inhibition of His-tagged human recombinant FGFR2 (403 to 822 residues) expressed in baculovirus using Fluorescein-Poly GT as substrate at 100 nM
Fibroblast growth factor receptor 2 (Homo sapiens), sequence (P21802 22-821 limits assumed): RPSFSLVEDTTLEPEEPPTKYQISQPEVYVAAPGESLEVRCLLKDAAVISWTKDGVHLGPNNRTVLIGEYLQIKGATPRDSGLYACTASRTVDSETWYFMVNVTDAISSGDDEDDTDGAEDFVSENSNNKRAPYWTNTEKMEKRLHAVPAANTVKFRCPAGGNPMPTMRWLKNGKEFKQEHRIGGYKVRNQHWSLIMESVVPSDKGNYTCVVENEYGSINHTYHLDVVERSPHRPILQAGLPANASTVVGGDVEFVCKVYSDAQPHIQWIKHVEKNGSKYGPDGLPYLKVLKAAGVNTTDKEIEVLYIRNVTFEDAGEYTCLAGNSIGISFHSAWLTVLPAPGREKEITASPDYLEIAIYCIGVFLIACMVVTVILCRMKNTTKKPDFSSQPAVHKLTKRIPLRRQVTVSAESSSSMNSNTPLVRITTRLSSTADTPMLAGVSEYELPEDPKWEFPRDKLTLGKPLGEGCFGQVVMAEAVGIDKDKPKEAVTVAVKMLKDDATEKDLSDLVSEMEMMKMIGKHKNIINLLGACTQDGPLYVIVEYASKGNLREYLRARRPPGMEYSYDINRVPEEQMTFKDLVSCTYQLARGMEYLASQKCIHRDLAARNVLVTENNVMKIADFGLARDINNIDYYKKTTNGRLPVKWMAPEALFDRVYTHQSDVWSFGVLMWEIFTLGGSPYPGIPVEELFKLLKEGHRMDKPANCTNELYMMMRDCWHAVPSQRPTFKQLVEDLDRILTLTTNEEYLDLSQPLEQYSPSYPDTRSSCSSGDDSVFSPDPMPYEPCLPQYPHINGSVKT

[6] = biological target: Vascular endothelial growth factor receptor 2 (Homo sapiens) (UniProt P35968); test: Inhibition of full length His-tagged human recombinant VEGFR2 expressed in baculovirus using Fluorescein-Poly GT as substrate at 100 nM
Vascular endothelial growth factor receptor 2 (Homo sapiens), sequence (P35968 whole entry): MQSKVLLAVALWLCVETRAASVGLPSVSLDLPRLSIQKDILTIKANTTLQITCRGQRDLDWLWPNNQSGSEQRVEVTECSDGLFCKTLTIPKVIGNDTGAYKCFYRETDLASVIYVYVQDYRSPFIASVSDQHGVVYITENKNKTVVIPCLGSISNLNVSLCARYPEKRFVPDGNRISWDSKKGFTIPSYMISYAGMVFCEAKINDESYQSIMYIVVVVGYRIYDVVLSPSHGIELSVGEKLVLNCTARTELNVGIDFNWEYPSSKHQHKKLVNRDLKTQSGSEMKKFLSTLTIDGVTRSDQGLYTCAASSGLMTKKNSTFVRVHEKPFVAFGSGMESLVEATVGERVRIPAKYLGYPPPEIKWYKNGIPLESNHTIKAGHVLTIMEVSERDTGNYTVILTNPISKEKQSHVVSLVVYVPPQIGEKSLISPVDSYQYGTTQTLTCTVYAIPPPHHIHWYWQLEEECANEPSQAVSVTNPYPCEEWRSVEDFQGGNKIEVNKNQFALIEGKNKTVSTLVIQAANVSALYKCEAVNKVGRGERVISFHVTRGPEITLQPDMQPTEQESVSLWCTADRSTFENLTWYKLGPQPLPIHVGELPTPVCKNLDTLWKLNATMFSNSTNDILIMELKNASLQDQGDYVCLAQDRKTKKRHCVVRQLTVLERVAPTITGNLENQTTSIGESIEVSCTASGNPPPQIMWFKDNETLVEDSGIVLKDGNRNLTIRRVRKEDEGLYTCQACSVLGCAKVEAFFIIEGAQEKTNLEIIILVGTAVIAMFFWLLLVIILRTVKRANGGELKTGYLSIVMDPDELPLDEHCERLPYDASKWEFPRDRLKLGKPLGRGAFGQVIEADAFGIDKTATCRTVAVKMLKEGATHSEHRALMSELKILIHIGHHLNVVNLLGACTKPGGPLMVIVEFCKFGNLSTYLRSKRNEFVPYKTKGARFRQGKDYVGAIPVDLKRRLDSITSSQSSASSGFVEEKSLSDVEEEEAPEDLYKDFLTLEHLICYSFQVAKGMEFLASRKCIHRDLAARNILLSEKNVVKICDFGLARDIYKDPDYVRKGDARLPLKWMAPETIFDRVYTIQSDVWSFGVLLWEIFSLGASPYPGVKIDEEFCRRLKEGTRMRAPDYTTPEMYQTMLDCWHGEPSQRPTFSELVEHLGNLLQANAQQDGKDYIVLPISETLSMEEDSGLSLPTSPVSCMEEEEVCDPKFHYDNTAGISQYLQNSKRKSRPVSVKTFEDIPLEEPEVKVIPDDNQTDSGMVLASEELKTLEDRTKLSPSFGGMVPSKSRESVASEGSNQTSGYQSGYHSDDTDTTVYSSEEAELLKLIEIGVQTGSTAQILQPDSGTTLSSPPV

[7] = biological target: Proto-oncogene tyrosine-protein kinase Src (Homo sapiens, UniProt P12931); test: Inhibition of full length His-tagged human recombinant cSRC expressed in baculovirus using Fluorescein-Poly GT as substrate at 100 nM
Proto-oncogene tyrosine-protein kinase Src, sequence (P12931 2-536 limits assumed): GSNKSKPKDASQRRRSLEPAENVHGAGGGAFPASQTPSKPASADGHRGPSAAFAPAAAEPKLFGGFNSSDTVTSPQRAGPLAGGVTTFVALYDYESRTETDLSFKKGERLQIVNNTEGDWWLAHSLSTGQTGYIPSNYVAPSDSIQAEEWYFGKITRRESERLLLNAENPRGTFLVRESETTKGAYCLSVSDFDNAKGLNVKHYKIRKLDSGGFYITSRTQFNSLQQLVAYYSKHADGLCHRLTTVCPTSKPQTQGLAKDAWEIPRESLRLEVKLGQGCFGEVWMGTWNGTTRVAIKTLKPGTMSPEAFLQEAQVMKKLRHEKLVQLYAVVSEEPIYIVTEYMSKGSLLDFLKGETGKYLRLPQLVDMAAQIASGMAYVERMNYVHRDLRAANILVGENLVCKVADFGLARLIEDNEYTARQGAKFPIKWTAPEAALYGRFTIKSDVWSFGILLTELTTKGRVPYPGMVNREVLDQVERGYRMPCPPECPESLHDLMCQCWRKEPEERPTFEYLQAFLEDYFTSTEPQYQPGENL

[8] = biological target: Serine/threonine-protein kinase B-raf (Homo sapiens) (UniProt P15056); test: Inhibition of full length GST-tagged human recombinant BRAF expressed in baculovirus using Fluorescein-MAP2K1 as substrate at 100 nM
[9] = biological target: Platelet-derived growth factor receptor alpha (Homo sapiens, UniProt P16234); test: Inhibition of full length GST-tagged human recombinant PDGFRalpha expressed in baculovirus using Fluorescein-Poly GT as substrate at 100 nM
Platelet-derived growth factor receptor alpha, sequence (P16234 whole entry): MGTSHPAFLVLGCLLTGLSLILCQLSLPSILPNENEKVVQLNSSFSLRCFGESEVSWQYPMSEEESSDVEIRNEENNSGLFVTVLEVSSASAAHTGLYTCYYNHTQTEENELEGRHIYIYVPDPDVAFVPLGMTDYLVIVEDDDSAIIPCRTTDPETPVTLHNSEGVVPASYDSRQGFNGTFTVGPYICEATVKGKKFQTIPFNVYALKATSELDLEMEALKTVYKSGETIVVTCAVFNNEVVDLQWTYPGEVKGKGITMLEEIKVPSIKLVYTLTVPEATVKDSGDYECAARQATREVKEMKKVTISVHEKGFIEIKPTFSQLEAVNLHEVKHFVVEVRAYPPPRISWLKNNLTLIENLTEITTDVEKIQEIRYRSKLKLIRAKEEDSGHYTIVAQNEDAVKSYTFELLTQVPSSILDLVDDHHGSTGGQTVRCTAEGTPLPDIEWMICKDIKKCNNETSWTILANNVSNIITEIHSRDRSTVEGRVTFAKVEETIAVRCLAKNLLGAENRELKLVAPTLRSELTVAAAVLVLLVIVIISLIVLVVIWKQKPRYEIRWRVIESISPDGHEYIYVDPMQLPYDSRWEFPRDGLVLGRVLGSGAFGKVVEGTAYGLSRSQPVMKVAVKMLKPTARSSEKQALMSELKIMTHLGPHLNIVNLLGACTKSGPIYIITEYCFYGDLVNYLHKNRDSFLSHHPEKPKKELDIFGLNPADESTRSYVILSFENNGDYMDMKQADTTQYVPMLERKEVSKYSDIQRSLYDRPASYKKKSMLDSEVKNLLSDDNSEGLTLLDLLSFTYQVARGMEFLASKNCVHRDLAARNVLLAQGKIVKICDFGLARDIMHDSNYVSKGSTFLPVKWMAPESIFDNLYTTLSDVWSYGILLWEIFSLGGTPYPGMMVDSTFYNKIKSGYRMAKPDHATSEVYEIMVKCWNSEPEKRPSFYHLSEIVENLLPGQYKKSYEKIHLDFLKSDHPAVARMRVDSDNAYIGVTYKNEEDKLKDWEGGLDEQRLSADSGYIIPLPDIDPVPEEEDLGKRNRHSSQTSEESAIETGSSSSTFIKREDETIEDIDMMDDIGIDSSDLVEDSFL

[10] = Antiproliferative activity against human PC3 cells after 72 hrs by MTT assay; assay type: functional, cell-based; conditions: PC-3, 72 h
PBMC = test: Hematotoxicity in human PHA/IL2-stimulated PBMC; assay type: cell-based

SMILES | EC50 (HT-29) [nM] | EC50 (MDA-MB-231) [nM] | EC50 (HepG2) [nM] | EC50 (A549) [nM] | EC50 (NCI-H1975) [nM] | inhibition [4] [%] | inhibition [5] [%] | inhibition [6] [%] | inhibition [7] [%] | inhibition [8] [%] | inhibition [9] [%] | EC50 (HUVEC) [nM] | EC50 [1] [nM] | EC50 [2] [nM] | EC50 [3] [nM] | EC50 [10] [nM] | EC50 (PBMC) [nM]
CNC(=O)c1cc(Oc2ccc(NC(=O)Nc3ccc(Cl)c(C(F)(F)F)c3)cc2)ccn1 [SORAFENIB] | > 1000 | > 1000 | 302 | > 1000 | > 1000 |  |  |  |  |  |  | 718 | > 1000 | > 1000 | > 1000 |  | 
CC(=O)c1cc2cc(CCc3cc(NC(=O)c4ccc(CN5CCC(N(C)C)C5)c(C(F)(F)F)c4)ccc3C)cnc2[nH]1 (centres undefined) | 303 |  | 248 | 293 |  | 83 | 81 | 99 | 97 | 60 | 89 | 163 | 304 |  |  |  | 
CCN(CC)CCNC(=O)c1c(C)[nH]c(/C=C2\C(=O)Nc3ccc(F)cc32)c1C [SUNITINIB] |  | > 1000 |  |  | > 1000 |  |  |  |  |  |  |  |  | > 1000 | > 1000 | > 1000 | 
C#Cc1cccc(Nc2ncnc3cc(OCCOC)c(OCCOC)cc23)c1 [ERLOTINIB] | > 1000 | > 1000 |  | > 1000 | > 1000 |  |  |  |  |  |  |  | > 1000 | > 1000 | > 1000 | > 1000 | 
CN(C)C/C=C/C(=O)Nc1cc2c(Nc3ccc(F)c(Cl)c3)ncnc2cc1O[C@H]1CCOC1 [AFATINIB] |  | > 1000 |  |  | 116 |  |  |  |  |  |  |  |  |  | > 1000 |  | 
CNC(=O)c1cc2cc(NCc3cc(NC(=O)c4ccc(CN5CCC(N(C)C)C5)c(C(F)(F)F)c4)ccc3C)cnc2[nH]1 (centres undefined) | 227 |  | 179 | 495 |  | 101 | 98 | 87 | 99 | 93 | 94 | 83 | 81 |  |  |  | 
Cc1nc(Nc2ncc(C(=O)Nc3c(C)cccc3Cl)s2)cc(N2CCN(CCO)CC2)n1 [DASATINIB] |  | 44 |  |  | 173 |  |  |  |  |  |  |  |  | 55 | 33 | 232 | 1600
CNC(=O)c1cc(Oc2ccc(NC(=O)Nc3ccc(Cl)c(C(F)(F)F)c3)c(F)c2)ccn1 [REGORAFENIB] | > 1000 |  |  | > 1000 |  |  |  |  |  |  |  |  |  |  |  |  | 
COC(=O)c1cc2cc(NC(=O)c3cc(NC(=O)c4ccc(CN5CCC(N(C)C)C5)c(C(F)(F)F)c4)ccc3C)cnc2[nH]1 (centres undefined) |  |  | 977 |  |  | 76 | 94 | 93 | 100 | 46 | 94 | 631 |  |  |  |  | 
COC(=O)c1cc2cc(CCc3cc(NC(=O)c4ccc(CN5CCC(N(C)C)C5)c(C(F)(F)F)c4)ccc3C)cnc2[nH]1 (centres undefined) |  |  | > 1000 |  |  | 97 | 101 | 102 | 101 | 64 | 105 | 171 |  |  |  |  | 

Continued, in another order:

EC50 (HT-29) [nM] | EC50 (MDA-MB-231) [nM] | EC50 (HepG2) [nM] | EC50 (A549) [nM] | EC50 (NCI-H1975) [nM] | inhibition [4] [%] | inhibition [5] [%] | inhibition [6] [%] | inhibition [7] [%] | inhibition [8] [%] | inhibition [9] [%] | SMILES | EC50 (HUVEC) [nM] | EC50 [1] [nM] | EC50 [2] [nM] | EC50 [3] [nM] | EC50 [10] [nM] | EC50 (PBMC) [nM]
 |  | > 1000 |  |  | 49 | -6 | 46 | 51 | 85 | 82 | COC(=O)c1cc2cc(NCc3cc(NC(=O)c4ccnc(C)c4)ccc3C)cnc2[nH]1 | 986 |  |  |  |  | 
150 |  | 275 | 204 |  | 94 | 58 | 71 | 91 | 56 | 73 | CC(=O)c1cc2cc(NCc3cc(NC(=O)c4ccc(CN5CCC(N(C)C)C5)c(C(F)(F)F)c4)ccc3C)cnc2[nH]1 (centres undefined) | 97 | 179 |  |  |  | 
 |  | 673 |  |  | 80 | 75 | 96 | 96 | 92 | 90 | COC(=O)c1cc2cc(NCc3cc(NC(=O)c4ccc(CN5CCC(N(C)C)C5)c(C(F)(F)F)c4)ccc3C)cnc2[nH]1 (centres undefined) | 689 |  |  |  |  | 
 |  | 963 |  |  | 78 | 13 | 73 | 101 | 73 | 93 | COC(=O)c1cc2cc(NCc3cc(NC(=O)c4cncc(C(F)(F)F)c4)ccc3C)cnc2[nH]1 | 390 |  |  |  |  | 
 |  | > 1000 |  |  | 40 | 3 | 58 | 68 | 77 | 91 | COC(=O)c1cc2cc(NCc3cc(NC(=O)c4ccc5c(c4)OCO5)ccc3C)cnc2[nH]1 | 298 |  |  |  |  | 
